Laboratory results from patent US6060604A, “Pharmaceutical compounds comprising polyamines substituted with electron-affinic groups” (priority 1996, dated 2000).
Where “and” joins values, the source holds several entries; their conditions need not be identical. Identical values can stand only once. Counter-ions that a name gives are not always drawn.

Columns and labels:
hypoxic CHO cells [1] = experiment: radiosensitizing potency on hypoxic CHO cells as a function of linker length (Table 3); format: cell-based, Chinese hamster; conditions: 8 Gy; for Sensitization Ratio at 20% Cell Survival Level: vs metronidazole, by linker (spacer chain) length
Experimental: The experiment shown in Table 3 is a later experiment which was conducted to determine the effect of the spacer chain (i.e., A) length. CHO cells were plated and allowed to attach to petri dishes for 3 h, then the media was replaced with 5 ml of Hank's Balanced Salt Solution with or without drugs. To induce cell hypoxia, the dishes were placed in sealed aluminum chambers which were degassed by pumping, and then back filled with 95% N2 /5% CO2. After 4 cycles, when the cells were severely hypoxic, the chambers were exposed to an X-ray beam generated by a General Electric Maxitron 300 therapy machine operated at 250 kVp and 20 mA (HVL 20 mm Al filter; dose rate at 2 Gy/min). The cells were cultured for 7 days in a 37° C. incubator and the resulting cell colonies were stained and counted.

mice [2] = experiment: later in vivo toxicity, oral, mice
H. pylori [3] = experiment: agar dilution method, inhibition of H. pylori growth; format: cell-based, H. pylori strain ATCC43504
H. pylori [4] = experiment: disk diffusion method, H. pylori growth inhibition; format: cell-based
H. pylori [5] = experiment: modified bottle broth method, H. pylori growth inhibition; format: cell-based
[6] = tested on: MTG-B mammary adenocarcinoma tumors; experiment: in vivo radiosensitization of MTG-B mammary adenocarcinoma tumors in mice; parameters: species or system female C3H mice
Experimental: To determine whether the pronounced effects of DATM in tissue culture can be duplicated in solid tumors, in vivo studies were performed on mice bearing MTG-B mammary adenocarcinoma tumors. The tumors were grown subcutaneously in the right flank of 7-week old female C3H mice. When the tumor diameter reached 8 mm, 8-carbon DATM was administered to groups of mice either intraperitoneally or orally at 2 g/kg, and 2 or 4 h later the tumors were subjected to an X-ray dose of 22 Gy. Control mice bearing identical tumors were either left untreated or treated with radiation alone or drug alone. For irradiation, the mice were placed into lead holders with the tumor-bearing leg exposed. After treatment, the tumor diameters were measured daily by caliper and the time required for tumors to grow to twice their initial size was calculated as tumor doubling time (TDT), with the treatment day defined as Day 0 for all calculations and plots, The survival time for mice was also recorded in all treatment groups.
To evaluate radiosensitization at different radiation doses, additional experiments were carried out where mice receiving DATM (2 g/kg body weight, given orally) were exposed to different radiation doses (0, 12, 22, 32 Gy).
FIG. 10 compares the effectiveness of oral DATM (2 g/kg body weight) to that of a much smaller DATM dose (25 mg/kg body weight) injected directly into the tumor.

hypoxic CHO cells [7] = experiment: in vitro toxicity on hypoxic CHO cells, colony formation; format: cell-based, Chinese hamster; conditions: 0.2 mM, 12 hours at 37° C.
Experimental: Subsequently, hypoxic CHO cells were incubated with 0.2 mM DATM or 10 mM metro for 12 hours at 37° C.

[8] = tested on: Chinese hamster ovary (CHO) cells; experiment: in vitro radiosensitization of hypoxic CHO cells, colony formation (Table 1); format: cell-based; conditions: drug dose 0.1 mM; for SFR (N2)(18 Gy), surviving fraction ratio: hypoxic
Experimental: Cells were plated and allowed to attach on glass petri dishes for 3 h, then the media was replaced with 5 ml of Hank's balanced salt solution (HBSS) with or without drugs. To induce cell hypoxia, the dishes were placed at room temperature into sealed aluminum chambers (8 dishes/chamber). […] This procedure was repeated 4 times with 5 min holding periods under positive gas pressure between evacuations. After 1 h, when the cells were severely hypoxic, the chambers were placed in 37° C. water bath for 1 hr. For oxic treatment groups, cells were placed in 37° C. incubators for 2 h with 5 ml of HBSS (±drugs). The chambers were placed on a rotating table and exposed to an X-ray beam generated by a General Electric Maxitron 300 therapy machine operated at 250 kVp and 20 mA (HVL 20 mm Al filter; dose rate at 2 Gy/min). After irradiation, cells were rinsed with HBSS, and covered with fresh media. Cells were cultured for 7 days in a 37° C. incubator. The resulting cell colonies were stained and counted.

CHO cells [9] = experiment: thermo-radiosensitization of hypoxic CHO cells, colony forming assay (Table 4); format: cell-based, Chinese hamster; conditions: 41° C.; for combined drug/mild hyperthermia effect on radiosensitivity: hypoxic CHO cells; for Do: 30 min
Experimental: To examine the thermo-radiosensitizing effects of compounds (8) and (10), hypoxic CHO cells were irradiated (with or without drugs) with radiation doses ranging from 0-30 Gy. After irradiation, the chambers were placed either in a 37° C. or in a 41° C. water bath for 30 min. Then cell survival was evaluated by the colony forming assay.

CHO cells [10] = experiment: radiosensitization potency on hypoxic CHO cells at 20% survival, single X ray dose 8 Gy (Table 2); format: cell-based, Chinese hamster; conditions: for IC80: Cricetulus griseus, CHO, read-out: drug molarity required to reduce cell survival to 20% of the untreated control value; for times more potent than metronidazole: hypoxic, 20% survival; for times more potent than metronidazole / Sensitization Ratio at 20% Survival Level: 8 Gy; for Sensitization Ratio at 20% Survival Level: vs metronidazole
Experimental: Cells were plated and allowed to attach on glass petri dishes for 3 h, then the media was replaced with 5 ml of Hank's balanced salt solution (HBSS) with or without drugs. To induce cell hypoxia, the dishes were placed at room temperature into sealed aluminum chambers (8 dishes/chamber). The chambers were degassed by pumping, and then back-filled with 95% N2 and 5% CO2. This procedure was repeated 4 times with 5 min holding periods under positive gas pressure between evacuations. After 1 h, when the cells were severely hypoxic, the chambers were placed in 37° C. water bath for 1 hr. For oxic treatment groups, cells were placed in 37° C. incubators for 2 h with 5 ml of HBSS (±drugs). The chambers were placed on a rotating table and exposed to an X-ray beam generated by a General Electric Maxitron 300 therapy machine operated at 250 kVp and 20 mA (HVL 20 mm Al filter; dose rate at 2 Gy/min). After irradiation, cells were rinsed with HBSS, and covered with fresh media. Cells were cultured for 7 days in a 37° C. incubator. The resulting cell colonies were stained and counted.
In the experiment shown in Table 2 hypoxic CHO cells were irradiated with a single X ray dose of 8 Gy, with or without drugs.

hypoxic CHO cells [11] = experiment: radiosensitizing hypoxic CHO cells, drugs given 2 hours at 4° C.; format: cell-based, Chinese hamster
mice [12] = experiment: preliminary in vivo toxicity, intraperitoneal, mice
Experimental: In a preliminary in vivo study, two groups of mice were injected intraperitoneally with either 1 g/kg or 4 g/kg of DATM (formula 8).

solubility in water = format: physicochemical; conditions: d-gluconic acid salt
Experimental: A solution of N, N, N', N'-tetra[2'-(2-methyl-5-nitro-1-imidazolyl)ethyl]-1,8-octanediamine free base was prepared by dissolving 0.5 g of N, N, N', N'-tetra[2'-(2-methyl-5-nitro-1-imidazolyl)ethyl]-1,8-octanediamine in 20 ml of CH2 Cl2. To this solution, 2 g of gluconic acid in 5 ml of water was added. To the resultant mixture, pure MeOH was added dropwise until the mixture became a homogeneous solution. To this, 50 ml of ether, followed by 200 ml of hexane were added to precipitate the solid. The reaction mixture was cooled to 4° C., and the precipitated salt was removed by filtration through a sintered glass funnel, washed with anhydrous ether and dried under vacuum.

[13] = as radiosensitizers; cited from earlier work
[14] = DATM (2 g/kg, i.p. or oral) + radiation 22 Gy

Cc1ncc([N+](=O)[O-])n1CCN(CCCCCN(CCn1c([N+](=O)[O-])cnc1C)CCn1c([N+](=O)[O-])cnc1C)CCn1c([N+](=O)[O-])cnc1C [5-carbon DATM, N, N, N', N'-tetra[2'-(2-methyl-5-nitro-1-imidazolyl)ethyl]-1,5-pentanediamine]
Sensitization Ratio at 20% Cell Survival Level (hypoxic CHO cells [1]): 80

Cc1ncc([N+](=O)[O-])n1CCN(CCCCCCCCN(CCn1c([N+](=O)[O-])cnc1C)CCn1c([N+](=O)[O-])cnc1C)CCn1c([N+](=O)[O-])cnc1C [8-carbon DATM, N, N, N', N'-tetra[2'(2-methyl-5-nitro-1-imidazolyl)ethyl]-1,8-octanediamine]
Sensitization Ratio at 20% Cell Survival Level (hypoxic CHO cells [1]): 510 | times less toxic to mice than metronidazole (mice [2]; oral): at least 5 times | toxicity (mice [2]; oral doses as high as 20 g/kg): no toxicity was observed | ratio of the MIC of metronidazole over that of DATM (H. pylori [3]): 35.37 | times more potent than metronidazole in killing H. pylori (H. pylori [4]): 22.1 times | ratio of the two MIC (metronidazole/DATM) (H. pylori [5]): 132.63 | sensitization effect of intratumor injection vs intraperitoneal ([6]; 25 mg/kg intratumor vs 2 g/kg i.p., 22 Gy): same sensitization effect as 2 g/kg given intraperitoneally | effectiveness of intratumor injection vs oral ([6]; 25 mg/kg intratumor vs 2 g/kg oral): much more effective than oral drug administration | life span of tumor-bearing mice ([6]; 2 g/kg orally, radiation doses 0, 12, 22, 32 Gy): pronounced increase in the life span of tumor-bearing mice at all radiation doses studied | tumor doubling time (TDT) ([6]; 8-carbon DATM alone): 4 days | survival time of mice ([6]; 8-carbon DATM alone, 2 g/kg, no radiation): 13 to 15 days | increase of survival time [6, 14]: 157-179% | survival time [6, 14]: 36 days and 39 days | effectiveness in delaying tumor growth relative to radiation alone ([6]; DATM + radiation): ~3 times | tumor doubling time (TDT) ([6]; DATM + radiation): 18 days | effectiveness of oral vs intraperitoneal ([6]; equal drug dose, 22 Gy): slightly less effective than an equal drug dose administered intraperitoneally

Cc1ncc([N+](=O)[O-])n1CCN(CCCCN(CCn1c([N+](=O)[O-])cnc1C)CCn1c([N+](=O)[O-])cnc1C)CCn1c([N+](=O)[O-])cnc1C [Compound 8, N, N, N', N'-tetra [2'-(2-methyl-5-nitro-1-imidazolyl)ethyl]-1,4-butanediamine]
toxic effects on CHO cells (hypoxic CHO cells [7]): No toxic effects were noted | Do [8]: 2.5 Gy | Ratio of RT Dose For 0.04 SF [8]: 1.5 | SFR (N2)(18 Gy), surviving fraction ratio [8]: 9.0 | combined drug/mild hyperthermia effect on radiosensitivity (CHO cells [9]): hypoxic cells become even more radiosensitive (smaller D0) than fully oxic cells | Do (CHO cells [9]; drug dose 50 μM): 0.8 Gy | IC80 (CHO cells [10]): 200 µM | times more potent than metronidazole (CHO cells [10]): 50 times | Sensitization Ratio at 20% Survival Level (CHO cells [10]): 50 | radiosensitizing effectiveness, 0.2 mM DATM vs 10 mM metro (hypoxic CHO cells [11]): equally effective | toxicity (mice [12]; 1 g/kg intraperitoneally, mice): No toxicity was observed | lethality (mice [12]; 4 g/kg intraperitoneally, mice): all mice of the 4 g/kg group died | toxicity compared to metro (mice [12]; same dosage): roughly comparable to that of metro for the same dosage

Cc1ncc([N+](=O)[O-])n1CCN(CCCCCN(CCn1c([N+](=O)[O-])cnc1C)CCn1c([N+](=O)[O-])cnc1C)CCn1c([N+](=O)[O-])cnc1C [Compound 10, N, N, N', N'-tetra[2'-(2-methyl-5-nitro-1-imidazolyl)ethyl]-1,5-pentanediamine]
Do [8]: 1.9 Gy | Ratio of RT Dose For 0.04 SF [8]: 1.5 | SFR (N2)(18 Gy), surviving fraction ratio [8]: 21.4 | combined drug/mild hyperthermia effect on radiosensitivity (CHO cells [9]): hypoxic cells become even more radiosensitive (smaller D0) than fully oxic cells | Do (CHO cells [9]; drug dose 10 μM): 0.6 Gy | IC80 (CHO cells [10]): 25 µM | times more potent than metronidazole (CHO cells [10]): 400 times | Sensitization Ratio at 20% Survival Level (CHO cells [10]): 400

Cc1ncc([N+](=O)[O-])n1CCN(CCCCCCCCN(CCn1c([N+](=O)[O-])cnc1C)CCn1c([N+](=O)[O-])cnc1C)CCn1c([N+](=O)[O-])cnc1C [Example 5, N, N, N', N'-tetra[2'-(2-methyl-5-nitro-1-imidazolyl)ethyl]-1,8-octanediamine gluconic acid salt]
solubility in water (solubility in water): highly soluble in water

Cc1ncc([N+](=O)[O-])n1CCN(CCCCN(CCn1c([N+](=O)[O-])cnc1C)CCn1c([N+](=O)[O-])cnc1C)CCn1c([N+](=O)[O-])cnc1C [Linker Length 4, N, N, N', N'-tetra [2'-(2-methyl-5-nitro-1-imidazolyl)ethyl]-1,4-butanediamine]
times more potent/effective than metronidazole (hypoxic CHO cells [1]): 50 times | Sensitization Ratio at 20% Cell Survival Level (hypoxic CHO cells [1]): 50

Cc1ncc([N+](=O)[O-])n1CCN(CCCCCCN(CCn1c([N+](=O)[O-])cnc1C)CCn1c([N+](=O)[O-])cnc1C)CCn1c([N+](=O)[O-])cnc1C [Linker Length 6]
Sensitization Ratio at 20% Cell Survival Level (hypoxic CHO cells [1]): 120

Cc1ncc([N+](=O)[O-])n1CCN(CCCCCCCN(CCn1c([N+](=O)[O-])cnc1C)CCn1c([N+](=O)[O-])cnc1C)CCn1c([N+](=O)[O-])cnc1C [Linker Length 7]
Sensitization Ratio at 20% Cell Survival Level (hypoxic CHO cells [1]): 220

COCC(O)Cn1ccnc1[N+](=O)[O-] (centres unmarked) [misonidazole]
toxicity at therapeutic levels [13]: highly toxic at therapeutic levels
